Laboratory results from ChEMBL document CHEMBL1914354, “Design, synthesis and antiepileptic properties of novel 1-(substituted benzylidene)-3-(1-(morpholino/piperidino methyl)-2,3-dioxoindolin-5-yl)urea derivatives” (Eur J Med Chem, 2011).
The source made the active and inactive calls. No cut-off for these calls is given here.

Legend:
Rattus norvegicus [1] = assay: Antiepileptic activity in Wistar rat assessed as protection against maximum electric shock-induced seizure at 30 mg/kg, po after 0.25 hrs; assay type: functional
Mus musculus [2] = assay: Antiepileptic activity in ip dosed Swiss albino mouse assessed as dose required to protect against subcutaneous pentylenetetrazol-induced clonic seizures after 4 hrs; assay type: functional; conditions: read-out: MED
Rattus norvegicus [3] = assay: Antiepileptic activity in Wistar rat assessed as protection against maximum electric shock-induced seizure at 30 mg/kg, po after 4 hrs; assay type: functional
Mus musculus [4] = assay: Neurotoxicity in ip dosed Swiss albino mouse assessed as dose required for minimal motor impairment after 4 hrs by rotarod test; assay type: toxicity, organism-based; conditions: in vivo
Mus musculus [5] = assay: Antiepileptic activity in ip dosed Swiss albino mouse assessed as dose required to protect against maximum electric shock-induced seizure after 0.5 hrs; assay type: functional; conditions: read-out: MED
Mus musculus [6] = assay: Antiepileptic activity in ip dosed Swiss albino mouse assessed as dose required to protect against maximum electric shock-induced seizure after 4 hrs; assay type: functional; conditions: read-out: MED
Mus musculus [7] = assay: Antiepileptic activity in ip dosed Swiss albino mouse assessed as dose required to protect against subcutaneous pentylenetetrazol-induced clonic seizures after 0.5 hrs; assay type: functional; conditions: read-out: MED
Rattus norvegicus [8] = assay: Antiepileptic activity in Wistar rat assessed as protection against maximum electric shock-induced seizure at 30 mg/kg, po after 1 hr; assay type: functional
Mus musculus [9] = assay: Neurotoxicity in ip dosed Swiss albino mouse assessed as dose required for minimal motor impairment after 0.5 hrs by rotarod test; assay type: toxicity, organism-based; conditions: in vivo
Rattus norvegicus [10] = assay: Antiepileptic activity in Wistar rat assessed as protection against maximum electric shock-induced seizure at 30 mg/kg, po after 2 hrs; assay type: functional
Rattus norvegicus [11] = assay: Neurotoxicity in Wistar rat assessed as minimal motor impairment at 30 mg/kg, po by rotarod method; assay type: toxicity, organism-based; parameters: dose 30 mg/kg, route oral; conditions: in vivo
Rattus norvegicus [12] = assay: Antiepileptic activity in Wistar rat assessed as protection against maximum electric shock-induced seizure at 30 mg/kg, po after 0.5 hrs; assay type: functional
Mus musculus [13] = assay: Neurotoxicity in ip dosed Swiss albino mouse assessed as minimal motor impairment at 300 mg/kg, ip after 4 hrs by rotarod test; assay type: toxicity, organism-based; parameters: dose 300 mg/kg, route intraperitoneal; conditions: in vivo
Mus musculus [14] = assay: Neurotoxicity in Swiss albino mouse assessed as minimal motor impairment at 300 mg/kg, ip after 0.5 hrs by rotarod test; assay type: toxicity, organism-based; parameters: dose 300 mg/kg, route intraperitoneal; conditions: in vivo
Mus musculus [15] = assay: Antiepileptic activity in ip dosed Swiss albino mouse assessed as protection against subcutaneous pentylenetetrazol-induced clonic seizures at 300 mg/kg, ip after 4 hrs; assay type: functional, organism-based; parameters: dose 300 mg/kg
Mus musculus [16] = assay: Antiepileptic activity in ip dosed Swiss albino mouse assessed as protection against subcutaneous pentylenetetrazol-induced clonic seizures at 300 mg/kg, ip after 0.5 hrs; assay type: functional, organism-based; parameters: dose 300 mg/kg
Mus musculus [17] = assay: Antiepileptic activity in Swiss albino mouse assessed as protection against maximum electric shock-induced seizure at 300 mg/kg, ip after 0.5 hrs; assay type: functional, organism-based; parameters: dose 300 mg/kg
Mus musculus [18] = assay: Antiepileptic activity in Swiss albino mouse assessed as protection against maximum electric shock-induced seizure at 300 mg/kg, ip after 4 hrs; assay type: functional, organism-based; parameters: dose 300 mg/kg
Mus musculus [19] = assay: Antiepileptic activity in ip dosed Swiss albino mouse assessed as protection against subcutaneous pentylenetetrazol-induced clonic seizures at 30 to 100 mg/kg, ip after 0.5 hrs; assay type: functional; conditions: sc, dose mg/kg 30-100, read-out: MED

SMILES	Activity (Rattus norvegicus [1]) [%]	minimal effective dose (Mus musculus [2]) [mg/kg]	Activity (Rattus norvegicus [3]) [%]	MTC (Mus musculus [4]) [mg/kg]	minimal effective dose (Mus musculus [5]) [mg/kg]	minimal effective dose (Mus musculus [6]) [mg/kg]	minimal effective dose (Mus musculus [7]) [mg/kg]	Activity (Rattus norvegicus [8]) [%]	MTC (Mus musculus [9]) [mg/kg]	Activity (Rattus norvegicus [10]) [%]	Activity (Rattus norvegicus [11])	Activity (Rattus norvegicus [12]) [%]	Activity (Mus musculus [13])	Activity (Mus musculus [14])	Activity (Mus musculus [15])	Activity (Mus musculus [16])	Activity (Mus musculus [17])	Activity (Mus musculus [18])	minimal effective dose (Mus musculus [19]) [mg/kg]
O=C(/N=C/c1ccc([N+](=O)[O-])cc1)Nc1ccc2c(c1)C(=O)C(=O)N2CN1CCCCC1	0	300	0	300	30	100	300	25	300	0	Non-toxic	50							
O=C(/N=C/c1ccc(Cl)cc1)Nc1ccc2c(c1)C(=O)C(=O)N2CN1CCOCC1	25	300	100		30	100	300	50		100	Non-toxic	50	Non-toxic	Non-toxic					
O=C(/N=C/c1ccc(Br)cc1)Nc1ccc2c(c1)C(=O)C(=O)N2CN1CCOCC1					100	300	300						Non-toxic	Non-toxic	inactive				
O=C(/N=C/c1cccc([N+](=O)[O-])c1)Nc1ccc2c(c1)C(=O)C(=O)N2CN1CCCCC1		300														inactive	inactive	inactive	
O=C(/N=C/c1ccc(Cl)cc1)Nc1ccc2c(c1)C(=O)C(=O)N2CN1CCCCC1				300	100	300	300							Non-toxic	inactive				
O=C(/N=C/c1ccccc1)Nc1ccc2c(c1)C(=O)C(=O)N2CN1CCOCC1						300									inactive	inactive	inactive		
O=C(/N=C/c1ccc(F)cc1)Nc1ccc2c(c1)C(=O)C(=O)N2CN1CCCCC1				300	100	300	100		300						inactive				
O=C(/N=C/c1ccccc1)Nc1ccc2c(c1)C(=O)C(=O)N2CN1CCCCC1							300								inactive		inactive	inactive	
O=C(/N=C/c1ccc(O)cc1)Nc1ccc2c(c1)C(=O)C(=O)N2CN1CCOCC1	0	300	50	300	300			0		0	Non-toxic	0		Non-toxic				inactive	30
CCC1(C)CC(=O)NC1=O (stereo unspecified) [ETHOSUXIMIDE]		300					100						Non-toxic	Non-toxic			inactive	inactive	
O=C(/N=C/c1ccccc1Cl)Nc1ccc2c(c1)C(=O)C(=O)N2CN1CCOCC1					100	300	300		300				Non-toxic		inactive				
Cc1ccc(/C=N/C(=O)Nc2ccc3c(c2)C(=O)C(=O)N3CN2CCCCC2)cc1							300								inactive		inactive	inactive	
O=C(/N=C/c1ccc(Br)cc1)Nc1ccc2c(c1)C(=O)C(=O)N2CN1CCCCC1	25	300	100	300	30	300		50	100	100	Non-toxic	50				inactive			
O=C(/N=C/c1cccc([N+](=O)[O-])c1)Nc1ccc2c(c1)C(=O)C(=O)N2CN1CCOCC1						300									inactive	inactive	inactive		
O=C1NC(=O)C(c2ccccc2)(c2ccccc2)N1 [PHENYTOIN]	25		75	100	30	30		75	100	75	Non-toxic	100			inactive	inactive			
COc1ccc(/C=N/C(=O)Nc2ccc3c(c2)C(=O)C(=O)N3CN2CCCCC2)cc1						300	300								inactive		inactive		
O=C(/N=C/c1ccc(F)cc1)Nc1ccc2c(c1)C(=O)C(=O)N2CN1CCOCC1	25	300	100		30	100	100	50	300	100	Non-toxic	50	Non-toxic						
O=C(/N=C/c1ccc(O)cc1)Nc1ccc2c(c1)C(=O)C(=O)N2CN1CCCCC1		300			300								Non-toxic	Non-toxic		inactive		inactive	
Cc1ccc(/C=N/C(=O)Nc2ccc3c(c2)C(=O)C(=O)N3CN2CCOCC2)cc1		300			300								Non-toxic	Non-toxic		inactive		inactive	
O=C(/N=C/c1ccccc1Cl)Nc1ccc2c(c1)C(=O)C(=O)N2CN1CCCCC1				300	100	300	300		100						inactive				
O=C(/N=C/c1ccc([N+](=O)[O-])cc1)Nc1ccc2c(c1)C(=O)C(=O)N2CN1CCOCC1		300			100								Non-toxic	Non-toxic		inactive		inactive	
COc1ccc(/C=N/C(=O)Nc2ccc3c(c2)C(=O)C(=O)N3CN2CCOCC2)cc1		300		300					300							inactive	inactive	inactive	
